Data reported in US20240174634A1, “Aldehyde Dehydrogenase Inhibitors and Their Therapeutic Use” (priority 2020, published 2024).

biological target: T1, ALDH1A3 (Homo sapiens, UniProt P47895); assay: ALDH1A3 cellular assay (ALDEFLUOR) in WM266.4 melanoma cells; assay type: cell-based; settings: WM266.4 cells; 60 min incubation; percentage of ALDH-positive cells
T1 sequence (P47895 1-512): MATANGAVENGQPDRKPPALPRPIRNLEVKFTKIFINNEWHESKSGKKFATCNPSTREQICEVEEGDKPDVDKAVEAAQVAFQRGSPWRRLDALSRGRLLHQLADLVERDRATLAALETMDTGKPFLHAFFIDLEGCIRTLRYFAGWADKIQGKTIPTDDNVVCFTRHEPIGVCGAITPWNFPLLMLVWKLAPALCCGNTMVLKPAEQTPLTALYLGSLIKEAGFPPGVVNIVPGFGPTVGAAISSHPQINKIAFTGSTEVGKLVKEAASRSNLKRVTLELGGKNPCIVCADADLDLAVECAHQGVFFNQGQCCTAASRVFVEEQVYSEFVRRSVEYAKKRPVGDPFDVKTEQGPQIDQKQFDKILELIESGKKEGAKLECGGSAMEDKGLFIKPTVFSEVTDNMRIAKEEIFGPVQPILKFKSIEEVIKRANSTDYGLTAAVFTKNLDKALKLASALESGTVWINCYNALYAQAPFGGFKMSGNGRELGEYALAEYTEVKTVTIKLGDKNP
Text: Materials: WM266.4 cells were procured from ATCC. (WM266-4 is a metastatic human melanoma cell line.) The ALDEFLUOR™ Assay kit (cat. no. 01700) and Aldefluor buffer (cat. no. 01702) were procured from StemCell Technologies. Dulbecco's Modified Eagle Medium (DMEM), FluoroBrite DMEM, Glutamax and Hoechst 33342 were purchased from ThermoFisher. Verapamil was obtained from Fluorochem. FBS was obtained from Sigma. Echo Qualified 384-well low-dead-volume microplate and Echo Qualified 384-well polypropylene microplate were purchased from Labcyte, and the Microclear black sterile polystyrene microplate from Greiner Bio-One.
Method: Intracellular inhibition of ALDH1A3 was assessed using the ALDEFLUOR™ Assay kit. The activated ALDEFLUOR™ reagent, BODIPY-aminoacetaldehyde (BAAA), is a fluorescent non-toxic substrate for ALDH enzymes, which freely diffuses into intact and viable cells. In the presence of ALDH enzyme activity, BAAA is converted into BODIPY-aminoacetate (BAA), which is retained inside the cells. The amount of fluorescent reaction product is proportional to the ALDH activity in the cells and is measured using an imaging cytometer. Active efflux of the reaction product is inhibited by an efflux inhibitor (Verapamil) in the ALDEFLUOR™ Assay Buffer.
A frozen vial of cells was recovered into a T225 flask containing DMEM, high glucose, 10% FBS, 1% glutamax, 1% HEPES. The following day, media was changed and cells were ready for assay from 72 hours after recovery. Cells were transferred into FluoroBrite DMEM (plus 10% FBS, 1% glutamax and 1% HEPES) and diluted to 2.5×10^5 cells/mL. 30 μL of cells were added to each well to give 7500 cells/well and then incubated overnight at 37° C., 5% CO2. After overnight incubation, the media was aspirated and replaced by 20 μL substrate/Hoechst buffer solution. Each plate requires 9 mL of solution comprising, 9 mL ALDEFLUOR assay buffer, 18 μL BAAA substrate (final concentration 500 nM), 4.5 μL Hoechst 33342 (final concentration 5 μg/mL) and 4.5 μL Verapamil (final concentration 50 μM). Compounds were prepared for dosing using the Echo acoustic dispenser by aliquoting into a source plate and dosed directly onto the cell assay plate to give a 10 point dose response per compound ranging from 10 μM to 0.0005 μM final concentration in 3-fold dilution steps. Plates were then incubated for 60 minutes at 37° C., 5% CO2. The buffer was then aspirated and cells washed twice in ice-cold PBS. Plates were kept on ice and 30 μL of cold Aldefluor buffer with 50 μM verapamil dispensed per well. The plates were then imaged using the CellInsight fluorescent microscope. Hoechst fluorescence in the 405 nm channel indicated the nuclear area and this was used to define nuclei and then the surrounding cellular area. Fluorescence in the 488 nm channel of the defined cellular area indicates ALDH1A3 activity. The percentage of cells positive for ALDH activity was plotted versus compound concentration to generate EC50 values using curve fitting parameters defined in Dotmatics software.

Question: `O=C1CCc2cc(OCCN3CCC[C@H]3c3cccc(F)c3)ccc2N1` [ALDHI-2018, 6-[2-[(2S)-2-(3-fluorophenyl)pyrrolidin-1-yl]ethoxy]-3,4-dihydro-1H-quinolin-2-one] was tested. Which IC50 did it give?
Answer: The IC50 was under 0.1 µM.

Question: How did the IC50 turn out when `CN(CCOc1ccc2c(c1)CCC(=O)N2)C(CO)c1cccc(F)c1` (centres unmarked) [ALDHI-3003, 6-[2-[[1-(3-fluorophenyl)-2-hydroxy-ethyl]-methyl-amino]ethoxy]-3,4-dihydro-1H-quinolin-2-one] was run?
Answer: The IC50 was 0.1 to 1 µM.

Question: `CC1Cc2cc(OCCN3CCCC3c3cccc(F)c3)ccc2NC1=O` (centres unmarked) [ALDHI-2048, 6-[2-[2-(3-fluorophenyl)pyrrolidin-1-yl]ethoxy]-3-methyl-3,4-dihydro-1H-quinolin-2-one] was tested. Which IC50 did it give?
Answer: The IC50 was under 0.1 µM.

Question: With `O=C1CCc2cc(NC(=O)c3sc(N4CC(O)C4)nc3-c3cccc(F)c3)ccc2N1` [ALDHI-1004, 4-(3-fluorophenyl)-2-(3-hydroxyazetidin-1-yl)-N-(2-oxo-3,4-dihydro-1H-quinolin-6-yl)thiazole-5-carboxamide] as the compound, how does the IC50 read?
Answer: The IC50 was under 0.1 µM.

Question: For `O=C1CCc2cc(OCCN3CCOCC3c3cccc(F)c3)ccc2N1` (centres unmarked) [ALDHI-2031, 6-[2-[3-(3-fluorophenyl)morpholin-4-yl]ethoxy]-3,4-dihydro-1H-quinolin-2-one], which IC50 is on record?
Answer: The IC50 was under 0.1 µM.

Question: For `O=C1CCc2cc(OCCN3CCCCC3c3cccc(F)c3)ccc2N1` (centres unmarked) [ALDHI-2038, 6-[2-[2-(3-fluorophenyl)-1-piperidyl]ethoxy]-3,4-dihydro-1H-quinolin-2-one], which IC50 is on record?
Answer: The IC50 was 1 to 10 µM.

Question: For `O=C1CCc2cc(OCCN3CCCC3c3ccsc3)ccc2N1` (centres unmarked) [ALDHI-2014, 6-[2-[2-(3-thienyl)pyrrolidin-1-yl]ethoxy]-3,4-dihydro-1H-quinolin-2-one], which IC50 is on record?
Answer: Its IC50 is 0.1 to 1 µM.

Question: How did the IC50 turn out when `CC1(c2cccc(F)c2)CCCN1CCOc1ccc2c(c1)CCC(=O)N2` (centres unmarked) [ALDHI-2037, 6-[2-[2-(3-fluorophenyl)-2-methyl-pyrrolidin-1-yl]ethoxy]-3,4-dihydro-1H-quinolin-2-one] was run?
Answer: Its IC50 is under 0.1 µM.

Question: Which IC50 does the source give for `O=C1CCc2cc(OCCN3CC(F)CC3c3cccc(F)c3)ccc2N1` (centres unmarked) [ALDHI-2052, 6-[2-[4-fluoro-2-(3-fluorophenyl)pyrrolidin-1-yl]ethoxy]-3,4-dihydro-1H-quinolin-2-one] here?
Answer: Its IC50 is under 0.1 µM.

Question: For `CN(C)c1nc(-c2cccc(F)c2)c(C(=O)Nc2ccc3c(c2)CCC(=O)N3)s1` [ALDHI-1002, 2-(dimethylamino)-4-(3-fluorophenyl)-N-(2-oxo-3,4-dihydro-1H-quinolin-6-yl)thiazole-5-carboxamide], which IC50 is on record?
Answer: The IC50 was under 0.1 µM.

Question: For `O=C1CCc2cc(NC(=O)c3cncnc3-c3cccc(F)c3)ccc2N1` [ALDHI-1018, 4-(3-fluorophenyl)-N-(2-oxo-3,4-dihydro-1H-quinolin-6-yl)pyrimidine-5-carboxamide], which IC50 is on record?
Answer: Its IC50 is 0.1 to 1 µM.

Question: For `CN(CCOc1ccc2c(c1)CCC(=O)N2)Cc1cccnc1` [ALDHI-3010, 6-[2-[methyl(3-pyridylmethyl)amino]ethoxy]-3,4-dihydro-1H-quinolin-2-one], which IC50 is on record?
Answer: Its IC50 is 0.1 to 1 µM.

Question: How did the IC50 turn out when `O=C1CCc2cc(OCCN3CCCC3c3cc(F)cc(F)c3)ccc2N1` (centres unmarked) [ALDHI-2032, 6-[2-[2-(3,5-difluorophenyl)pyrrolidin-1-yl]ethoxy]-3,4-dihydro-1H-quinolin-2-one] was run?
Answer: The IC50 was under 0.1 µM.

Question: For `O=C1CCc2cc(OCCN(CCO)Cc3cccnc3)ccc2N1` [ALDHI-3005, 6-[2-[2-hydroxyethyl(3-pyridylmethyl)amino]ethoxy]-3,4-dihydro-1H-quinolin-2-one], which IC50 is on record?
Answer: Its IC50 is 0.1 to 1 µM.

Question: How did the IC50 turn out when `O=c1ccc2cc(OCCN3CCCC3c3cccc(F)c3)ccc2[nH]1` (centres unmarked) [ALDHI-2022, 6-[2-[2-(3-fluorophenyl)pyrrolidin-1-yl]ethoxy]-1H-quinolin-2-one] was run?
Answer: The IC50 was 0.1 to 1 µM.

Question: Which IC50 does the source give for `O=C1CCc2cc(OCCN3CC(O)CC3c3cccc(F)c3)ccc2N1` (mixture of isomers) [ALDHI-2035, 6-[2-[2-(3-fluorophenyl)-4-hydroxy-pyrrolidin-1-yl]ethoxy]-3,4-dihydro-1H-quinolin-2-one] here?
Answer: Its IC50 is under 0.1 µM.

Question: Which IC50 does the source give for `O=C1COc2cc(NC(=O)c3scnc3-c3cccc(F)c3)ccc2N1` [ALDHI-1016, 4-(3-fluorophenyl)-N-(3-oxo-4H-1,4-benzoxazin-7-yl)thiazole-5-carboxamide] here?
Answer: The IC50 was under 0.1 µM.

Question: With `CN(CCOc1ccc2c(c1)CCC(=O)N2)C(=O)c1cccc(F)c1` [ALDHI-3008, 3-fluoro-N-methyl-N-[2-[(2-oxo-3,4-dihydro-1H-quinolin-6-yl)oxy]ethyl]benzamide] as the compound, how does the IC50 read?
Answer: The IC50 was 0.1 to 1 µM.

Question: With `O=C1CCc2cc(OCCN3CCCC3c3cccnc3)ccc2N1` (centres unmarked) [ALDHI-2005, 6-[2-[2-(3-pyridyl)pyrrolidin-1-yl]ethoxy]-3,4-dihydro-1H-quinolin-2-one] as the compound, how does the IC50 read?
Answer: Its IC50 is 0.1 to 1 µM.

Question: Which IC50 does the source give for `O=C1CCc2cc(OCCN3C(=O)CCC3c3ccccc3)ccc2N1` (centres unmarked) [ALDHI-2051, 6-[2-(2-oxo-5-phenyl-pyrrolidin-1-yl)ethoxy]-3,4-dihydro-1H-quinolin-2-one] here?
Answer: The IC50 was under 0.1 µM.

Question: `O=C1CSc2cc(OCCN3CCCC3c3ccncc3)ccc2N1` (centres unmarked) [ALDHI-2029, 7-[2-[2-(4-pyridyl)pyrrolidin-1-yl]ethoxy]-4H-1,4-benzothiazin-3-one] was tested. Which IC50 did it give?
Answer: Its IC50 is 0.1 to 1 µM.

Question: Which IC50 does the source give for `C[C@@H](c1ccccc1)N(CCO)CCOc1ccc2c(c1)CCC(=O)N2` [ALDHI-3007, 6-[2-[2-hydroxyethyl-[(1S)-1-phenylethyl]amino]ethoxy]-3,4-dihydro-1H-quinolin-2-one] here?
Answer: The IC50 was 0.1 to 1 µM.

Question: With `Cc1ccccc1C1CCCN1CCOc1ccc2c(c1)CCC(=O)N2` (centres unmarked) [ALDHI-2012, 6-[2-[2-(o-tolyl)pyrrolidin-1-yl]ethoxy]-3,4-dihydro-1H-quinolin-2-one] as the compound, how does the IC50 read?
Answer: The IC50 was 1 to 10 µM.

Question: For `O=C1CCc2cc(OCCN3CCCC3c3ccccc3)ccc2N1` (centres unmarked) [ALDHI-2019, 6-[2-(2-phenylpyrrolidin-1-yl)ethoxy]-3,4-dihydro-1H-quinolin-2-one], which IC50 is on record?
Answer: The IC50 was 0.1 to 1 µM.

Question: For `O=C1CCc2cc(NC(=O)c3sc(N4CCOCC4)nc3-c3cccc(F)c3)ccc2N1` [ALDHI-1001, 4-(3-fluorophenyl)-2-morpholino-N-(2-oxo-3,4-dihydro-1H-quinolin-6-yl)thiazole-5-carboxamide], which IC50 is on record?
Answer: Its IC50 is under 0.1 µM.

Question: With `CCn1cc(C2CCCN2CCOc2ccc3c(c2)CCC(=O)N3)cn1` (centres unmarked) [ALDHI-2016, 6-[2-[2-(1-ethylpyrazol-4-yl)pyrrolidin-1-yl]ethoxy]-3,4-dihydro-1H-quinolin-2-one] as the compound, how does the IC50 read?
Answer: Its IC50 is 1 to 10 µM.

Question: `Cc1ccc(C2CCCN2CCOc2ccc3c(c2)CCC(=O)N3)cn1` (centres unmarked) [ALDHI-2030, 6-[2-[2-(6-methyl-3-pyridyl)pyrrolidin-1-yl]ethoxy]-3,4-dihydro-1H-quinolin-2-one] was tested. Which IC50 did it give?
Answer: The IC50 was 0.1 to 1 µM.

Question: Which IC50 does the source give for `O=C1CCc2cc(NC(=O)c3ncsc3-c3cccc(F)c3)ccc2N1` [ALDHI-1014, 5-(3-fluorophenyl)-N-(2-oxo-3,4-dihydro-1H-quinolin-6-yl)thiazole-4-carboxamide] here?
Answer: Its IC50 is 1 to 10 µM.

Question: `O=C1CCc2cc(OCCN3CCCC3c3ccccc3F)ccc2N1` (centres unmarked) [ALDHI-2002, 6-[2-[2-(2-fluorophenyl)pyrrolidin-1-yl]ethoxy]-3,4-dihydro-1H-quinolin-2-one] was tested. Which IC50 did it give?
Answer: Its IC50 is 1 to 10 µM.

Question: For `CC1(C)Oc2cc(OCCN3CCCC3c3cccc(F)c3)ccc2NC1=O` (centres unmarked) [ALDHI-2043, 7-[2-[2-(3-fluorophenyl)pyrrolidin-1-yl]ethoxy]-2,2-dimethyl-4H-1,4-benzoxazin-3-one], which IC50 is on record?
Answer: The IC50 was 0.1 to 1 µM.

Question: For `Cc1nc(C2CCCN2CCOc2ccc3c(c2)CCC(=O)N3)cs1` (centres unmarked) [ALDHI-2033, 6-[2-[2-(2-methylthiazol-4-yl)pyrrolidin-1-yl]ethoxy]-3,4-dihydro-1H-quinolin-2-one], which IC50 is on record?
Answer: Its IC50 is 1 to 10 µM.

Question: Which IC50 does the source give for `O=C1CCc2cc(OCCn3ccnc3-c3ccccc3)ccc2N1` [ALDHI-2041, 6-[2-(2-phenylimidazol-1-yl)ethoxy]-3,4-dihydro-1H-quinolin-2-one] here?
Answer: Its IC50 is 1 to 10 µM.
